These results are taken from ChEMBL document CHEMBL4014331, “Design and Synthesis of Soluble and Cell-Permeable PI3Kδ Inhibitors for Long-Acting Inhaled Administration” (J Med Chem, 2017).

By IC50 is commonly meant the concentration at which inhibition is half-maximal. What is called logD is lipophilicity at a set pH, counting ionised and neutral species. Lower therefore signals lower lipophilicity. One may read the solubility as the concentration that dissolves in the medium under given conditions. In general, inhibition refers to the change of the read-out against control, counted positive when it falls. As a reminder, the bioavailability is dose-corrected exposure relative to a reference, in per cent. One may read the pKa as the negative logarithm of the acid dissociation constant. A high value points to a weaker acid or stronger base. As a reminder, the clearance is a measure of how efficiently the substance is removed, as volume per time. A high value points to a high capacity for elimination.

In brackets after ≈: the same amount, converted by molar mass.

Data set [1] deals with PI3-kinase p110-delta/p85-alpha (Homo sapiens, UniProt O00329). As to the kind of experiment: Inhibition of recombinant human His6-tagged PI3K p110delta/p85alpha using DiC8-PIP2 as substrate preincubated for 15 mins followed by substrate addition measured after 60 mins by ADP-Glo assay. The data set is classed as protein-complex assay. Background: ADP-Glo turns the ADP formed in a reaction into a luminescent signal.

Data set [2] is described as follows: Metabolic stability in it dosed rat lungs assessed as compound remaining at 3 mins post dose by LC-MS/MS analysis. The data set is classed as ADME, organism-based. The conditions noted are these: lung, inhaled or intranasal, read-out: Stability.
For the next data set, the target named is PI3K p110 beta/p85 alpha (Homo sapiens, UniProt P42338). The data set is described as follows: Inhibition of recombinant human His6-tagged PI3K p110beta/p85alpha using DiC8-PIP2 as substrate preincubated for 15 mins followed by substrate addition measured after 60 mins by ADP-Glo assay. The data set is classed as protein-complex assay.
Data set [3] in a line: Metabolic stability in it dosed rat lungs assessed as compound remaining at 24 hrs post dose by LC-MS/MS analysis. The conditions noted are these: lung, inhaled or intranasal, read-out: Stability. The data set is classed as ADME, organism-based.
Data set [4] deals with PI3-kinase p110-alpha/p85-alpha (Homo sapiens, UniProt P42336). As to the kind of experiment: Inhibition of recombinant human His6-tagged PI3K p110alpha/p85alpha using DiC8-PIP2 as substrate preincubated for 15 mins followed by substrate addition measured after 60 mins by ADP-Glo assay. The data set is classed as protein-complex assay.
In data set [5] the target is T1, Phosphatidylinositol 4,5-bisphosphate 3-kinase catalytic subunit delta isoform (Homo sapiens, UniProt O00329).
T1 sequence (O00329 whole entry): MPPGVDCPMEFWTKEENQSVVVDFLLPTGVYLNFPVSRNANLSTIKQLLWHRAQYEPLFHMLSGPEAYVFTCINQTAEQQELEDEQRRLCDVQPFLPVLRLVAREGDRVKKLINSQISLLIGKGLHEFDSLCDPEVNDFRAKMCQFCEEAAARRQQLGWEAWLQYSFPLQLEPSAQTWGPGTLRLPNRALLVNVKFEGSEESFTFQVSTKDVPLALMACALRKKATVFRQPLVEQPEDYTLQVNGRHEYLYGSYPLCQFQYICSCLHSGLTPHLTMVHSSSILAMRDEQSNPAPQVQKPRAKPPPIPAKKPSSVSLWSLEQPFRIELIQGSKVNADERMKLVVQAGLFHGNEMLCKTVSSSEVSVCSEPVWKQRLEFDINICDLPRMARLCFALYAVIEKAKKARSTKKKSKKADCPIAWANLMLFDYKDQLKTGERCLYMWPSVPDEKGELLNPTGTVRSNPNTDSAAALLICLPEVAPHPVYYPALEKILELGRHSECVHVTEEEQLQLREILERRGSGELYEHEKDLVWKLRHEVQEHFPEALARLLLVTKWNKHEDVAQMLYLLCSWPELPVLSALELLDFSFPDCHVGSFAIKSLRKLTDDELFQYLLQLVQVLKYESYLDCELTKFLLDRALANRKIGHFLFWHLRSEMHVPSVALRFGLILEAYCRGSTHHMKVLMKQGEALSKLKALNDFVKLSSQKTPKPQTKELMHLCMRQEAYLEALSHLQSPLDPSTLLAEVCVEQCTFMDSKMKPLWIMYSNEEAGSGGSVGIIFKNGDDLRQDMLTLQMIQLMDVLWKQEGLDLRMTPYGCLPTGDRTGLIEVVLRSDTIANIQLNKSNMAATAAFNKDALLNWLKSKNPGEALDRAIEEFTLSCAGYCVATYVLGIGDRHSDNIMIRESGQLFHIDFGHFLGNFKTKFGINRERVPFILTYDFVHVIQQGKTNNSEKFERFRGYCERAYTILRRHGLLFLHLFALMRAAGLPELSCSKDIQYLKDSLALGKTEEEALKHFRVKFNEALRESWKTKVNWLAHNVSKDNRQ
The data set is described as follows: Inhibition of PI3Kdelta in human JeKo1 cells assessed as reduction in Akt phosphorylation at Ser473 residue preincubated for 60 mins followed by Anti-IgM stimulation for 10 mins by TR-FRET assay. The data set is classed as cell-based.

The target of data set [6] is Phosphatidylinositol 4,5-bisphosphate 3-kinase catalytic subunit gamma isoform (Homo sapiens, UniProt P48736). The data set is described as follows: Inhibition of recombinant human His6-tagged PI3Kgamma (144 to 1102 residues) using DiC8-PIP2 as substrate preincubated for 15 mins followed by substrate addition measured after 60 mins by ADP-Glo assay.
Data set [7] in a line: Lipophilicity, log D of the compound. The data set is classed as physicochemical. Conditions: octanol/water.
Data set [8] is described as follows: Solubility of the compound. The data set is classed as physicochemical.
Data set [9] can be described thus: Terminal half life in it dosed rat lung by LC-MS/MS analysis. The data set is classed as ADME, organism-based. The conditions noted are these: inhaled or intranasal, read-out: beta t1/2 (converted).
Data set [10] in a line: Metabolic stability in it dosed rat lungs assessed as compound remaining at 4 hrs post dose by LC-MS/MS analysis. The conditions noted are these: lung, inhaled or intranasal, read-out: Stability. The data set is classed as ADME, organism-based.
A further data set concerns the target hERG (KCNH2) (Homo sapiens, UniProt Q12809). The data set is described as follows: Inhibition of human ERG at 11 uM relative to control.
Data set [11] is described as follows: Volume of distribution at steady state in iv or po dosed rat. The data set is classed as ADME, organism-based. Conditions: in vivo, read-out: Vdss.
Data set [12] is described as follows: Oral bioavailability in rat. The data set is classed as ADME, organism-based. The conditions noted are these: in vivo.
Data set [13] is described as follows: Dissociation constant, basic pKa of compound. The data set is classed as physicochemical.
A short description of data set [14]: Clearance in iv dosed rat. The data set is classed as ADME, organism-based. Conditions: in vivo.
The nature of data set [15]: Half life in iv or po dosed rat. The data set is classed as ADME, organism-based. The conditions noted are these: in vivo.
The nature of data set [16]: Dissociation constant, acidic pKa of compound. The data set is classed as physicochemical.
A further data set deals with Mus musculus. As to the kind of experiment: In vivo inhibition of PI3Kdelta in ovalbumin-sensitized OT-2 transgenic C57BL/6-Tg-(Tcratcrb)425Cbn/Crl mouse assessed as reduction in S6RP phosphorylation at Ser235/236 residues in bronchoalveolar lung lavage administered […] 18 hrs prior to anti-CD3 stimulation measured after 6 hrs. The data set is classed as functional, organism-based.

Phosphatidylinositol 4,5-bisphosphate 3-kinase catalytic subunit gamma isoform, sequence (P48736 whole entry, the tested form may be a part, canonical isoform): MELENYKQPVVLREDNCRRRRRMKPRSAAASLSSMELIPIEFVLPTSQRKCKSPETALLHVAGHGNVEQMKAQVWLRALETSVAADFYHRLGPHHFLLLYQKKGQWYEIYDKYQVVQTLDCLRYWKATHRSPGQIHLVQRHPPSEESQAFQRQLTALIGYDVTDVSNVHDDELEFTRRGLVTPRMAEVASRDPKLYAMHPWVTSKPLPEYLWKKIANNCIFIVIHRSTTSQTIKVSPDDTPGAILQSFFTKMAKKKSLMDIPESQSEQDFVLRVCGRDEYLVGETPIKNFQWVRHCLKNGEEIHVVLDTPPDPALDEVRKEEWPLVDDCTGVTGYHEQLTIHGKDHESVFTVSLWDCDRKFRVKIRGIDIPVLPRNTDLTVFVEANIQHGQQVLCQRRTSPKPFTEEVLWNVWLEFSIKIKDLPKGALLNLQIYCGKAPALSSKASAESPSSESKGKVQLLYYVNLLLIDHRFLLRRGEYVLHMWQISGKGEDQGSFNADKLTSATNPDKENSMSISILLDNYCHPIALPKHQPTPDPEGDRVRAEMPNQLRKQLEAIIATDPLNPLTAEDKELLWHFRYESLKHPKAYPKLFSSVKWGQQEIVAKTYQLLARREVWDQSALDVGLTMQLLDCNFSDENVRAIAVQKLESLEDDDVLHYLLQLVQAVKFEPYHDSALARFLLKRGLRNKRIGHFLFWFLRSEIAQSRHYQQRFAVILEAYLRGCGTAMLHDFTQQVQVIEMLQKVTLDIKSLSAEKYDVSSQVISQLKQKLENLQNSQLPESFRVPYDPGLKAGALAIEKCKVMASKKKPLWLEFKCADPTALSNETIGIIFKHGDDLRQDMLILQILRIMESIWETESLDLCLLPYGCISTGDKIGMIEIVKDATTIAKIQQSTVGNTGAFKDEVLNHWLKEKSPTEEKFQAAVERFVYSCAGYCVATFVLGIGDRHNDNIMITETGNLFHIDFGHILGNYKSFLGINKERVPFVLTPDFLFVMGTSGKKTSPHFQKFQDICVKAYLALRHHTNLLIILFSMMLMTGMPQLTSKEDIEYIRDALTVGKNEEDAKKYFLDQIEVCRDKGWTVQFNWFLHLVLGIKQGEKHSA
PI3-kinase p110-alpha/p85-alpha, sequence (P27986 whole entry, canonical isoform): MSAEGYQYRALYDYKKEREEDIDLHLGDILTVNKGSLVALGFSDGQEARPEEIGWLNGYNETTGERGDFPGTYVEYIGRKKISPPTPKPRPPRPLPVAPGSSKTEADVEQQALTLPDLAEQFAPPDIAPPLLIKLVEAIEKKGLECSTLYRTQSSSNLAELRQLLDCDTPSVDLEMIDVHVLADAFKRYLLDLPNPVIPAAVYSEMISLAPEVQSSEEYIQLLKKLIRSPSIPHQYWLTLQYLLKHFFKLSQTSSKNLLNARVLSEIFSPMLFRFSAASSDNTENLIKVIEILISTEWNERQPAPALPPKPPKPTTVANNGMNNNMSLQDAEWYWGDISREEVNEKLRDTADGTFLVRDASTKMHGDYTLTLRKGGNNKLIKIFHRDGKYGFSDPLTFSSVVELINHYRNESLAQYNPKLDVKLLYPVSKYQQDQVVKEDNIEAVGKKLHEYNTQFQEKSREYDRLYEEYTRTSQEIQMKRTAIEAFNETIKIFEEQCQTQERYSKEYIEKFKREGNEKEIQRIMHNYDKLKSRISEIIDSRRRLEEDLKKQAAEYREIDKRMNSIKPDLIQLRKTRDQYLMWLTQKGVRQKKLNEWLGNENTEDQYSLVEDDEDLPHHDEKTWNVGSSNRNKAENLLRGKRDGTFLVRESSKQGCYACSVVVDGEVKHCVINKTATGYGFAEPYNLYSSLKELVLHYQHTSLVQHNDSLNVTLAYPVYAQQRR
PI3-kinase p110-alpha/p85-alpha, sequence (P42336 whole entry, canonical isoform): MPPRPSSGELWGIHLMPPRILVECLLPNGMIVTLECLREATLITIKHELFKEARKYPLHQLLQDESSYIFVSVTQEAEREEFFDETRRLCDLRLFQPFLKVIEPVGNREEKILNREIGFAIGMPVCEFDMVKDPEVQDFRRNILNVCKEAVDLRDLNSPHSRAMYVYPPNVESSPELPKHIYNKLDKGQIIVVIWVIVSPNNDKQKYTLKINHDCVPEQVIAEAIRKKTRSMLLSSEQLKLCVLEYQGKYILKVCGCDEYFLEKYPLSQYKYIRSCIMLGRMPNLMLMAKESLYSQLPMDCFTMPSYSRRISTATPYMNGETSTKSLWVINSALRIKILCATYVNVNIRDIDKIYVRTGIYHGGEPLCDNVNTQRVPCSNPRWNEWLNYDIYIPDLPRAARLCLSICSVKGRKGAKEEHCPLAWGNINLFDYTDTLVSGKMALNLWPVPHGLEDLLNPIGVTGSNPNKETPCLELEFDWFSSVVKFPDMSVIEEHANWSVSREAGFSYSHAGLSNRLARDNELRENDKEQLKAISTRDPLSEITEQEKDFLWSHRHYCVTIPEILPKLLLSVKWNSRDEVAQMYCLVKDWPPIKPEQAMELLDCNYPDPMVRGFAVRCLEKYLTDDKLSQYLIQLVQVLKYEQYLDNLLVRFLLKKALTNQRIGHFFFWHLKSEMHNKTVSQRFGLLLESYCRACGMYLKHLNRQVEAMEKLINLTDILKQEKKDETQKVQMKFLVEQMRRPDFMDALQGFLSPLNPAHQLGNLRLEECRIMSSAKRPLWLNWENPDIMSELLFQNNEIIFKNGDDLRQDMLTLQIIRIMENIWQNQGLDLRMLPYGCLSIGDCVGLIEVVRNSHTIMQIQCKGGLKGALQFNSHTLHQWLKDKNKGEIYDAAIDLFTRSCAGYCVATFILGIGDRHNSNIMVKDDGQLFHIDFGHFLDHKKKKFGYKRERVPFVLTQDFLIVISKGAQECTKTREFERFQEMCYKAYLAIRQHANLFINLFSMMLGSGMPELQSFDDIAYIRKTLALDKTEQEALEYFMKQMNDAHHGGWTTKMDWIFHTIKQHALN
PI3-kinase p110-delta/p85-alpha, sequence (P27986 whole entry, one chain of several): as the sequence (P27986 whole entry, canonical isoform) above
PI3K p110 beta/p85 alpha, sequence (P27986 whole entry): as the sequence (P27986 whole entry, canonical isoform) above
PI3K p110 beta/p85 alpha, sequence (P42338 whole entry): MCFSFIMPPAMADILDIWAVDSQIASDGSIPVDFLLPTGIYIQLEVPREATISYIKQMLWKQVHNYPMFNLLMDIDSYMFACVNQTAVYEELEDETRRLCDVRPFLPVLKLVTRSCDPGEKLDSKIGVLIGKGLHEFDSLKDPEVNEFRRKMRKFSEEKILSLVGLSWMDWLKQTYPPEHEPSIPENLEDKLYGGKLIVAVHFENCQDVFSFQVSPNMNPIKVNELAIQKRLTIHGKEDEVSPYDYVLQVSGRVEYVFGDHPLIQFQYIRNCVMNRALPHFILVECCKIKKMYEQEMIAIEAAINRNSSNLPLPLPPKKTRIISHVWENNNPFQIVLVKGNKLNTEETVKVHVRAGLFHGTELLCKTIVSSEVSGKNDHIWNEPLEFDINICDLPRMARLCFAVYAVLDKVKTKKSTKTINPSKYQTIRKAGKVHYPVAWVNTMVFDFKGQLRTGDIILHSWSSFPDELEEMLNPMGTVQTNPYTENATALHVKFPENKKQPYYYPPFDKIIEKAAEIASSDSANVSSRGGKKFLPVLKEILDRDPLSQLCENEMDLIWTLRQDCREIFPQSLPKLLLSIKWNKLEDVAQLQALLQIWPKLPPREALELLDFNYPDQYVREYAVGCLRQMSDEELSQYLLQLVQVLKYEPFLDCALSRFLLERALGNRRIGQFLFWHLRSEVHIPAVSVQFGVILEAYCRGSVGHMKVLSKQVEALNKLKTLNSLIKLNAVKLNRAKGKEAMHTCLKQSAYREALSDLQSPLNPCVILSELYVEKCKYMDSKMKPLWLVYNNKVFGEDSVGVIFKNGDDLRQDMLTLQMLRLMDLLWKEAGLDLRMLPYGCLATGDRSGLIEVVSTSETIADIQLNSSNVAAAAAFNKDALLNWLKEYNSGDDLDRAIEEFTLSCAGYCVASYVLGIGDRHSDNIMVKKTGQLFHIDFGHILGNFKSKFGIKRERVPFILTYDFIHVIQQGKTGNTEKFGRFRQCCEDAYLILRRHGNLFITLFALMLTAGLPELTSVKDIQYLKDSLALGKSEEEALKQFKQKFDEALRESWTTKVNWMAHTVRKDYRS

In the case of `Cc1csc2cc([C@H](C)Nc3ncnc(N)c3C#N)c(-c3ccccc3)c(=O)n12`, the IC50 in data set [1] was 0.000398 µM; on PI3K p110 beta/p85 alpha, 0.0501 µM; in data set [4] it was 0.631 µM; in [5], 0.000631 to 0.000794 µM; in data set [6], 0.0126 µM. The remaining at 0.05 h in data set [2] was 2%. The remaining at 24 h in data set [3] stood at 0%. In data set [7], the logD was found to be 2.7. This molecule also registered a solubility in data set [8] of 77 µM (≈ 31 µg/mL). In addition, the half-life in data set [9] is less than 0.1 h. Moreover, the remaining at 4 h in data set [10] turned out to be 0%.

On hERG (KCNH2), `Cc1csc2cc([C@H](C)Nc3ncnc(N)c3C#N)c(-c3cccc(CN4CCC(N(C)CC(C)C)CC4)c3)c(=O)n12` gave an inhibition at 11 µM of less than 20%. The concentration for half-maximal inhibition (IC50) in data set [1] was 0.000631 µM; on PI3K p110 beta/p85 alpha, 0.0794 µM; in data set [4], not below 0.631 µM; in data set [5], 0.00126 µM; in data set [6] it was not below 0.2 µM. In data set [11], the Vd amounted to 88 L/kg. The bioavailability in data set [12] is less than 1%. The remaining at 24 h in data set [3] was determined as 2.8%. Further, the figures for the pKa in [13] and in [16] were 6.8 and 9.7, respectively. This molecule yielded a clearance in data set [14] of 9 L/h/kg. Moreover, in [7], the log distribution coefficient (logD) turned out to be 1.7. Besides, the half-life in data set [15] is 11 h; in data set [9] it was 9.9 h. Also, the inhibition entry in the data set with Mus musculus is “Dose-dependent effect”.

As to `COCCNCc1cccc(-c2c([C@H](C)Nc3ncnc(N)c3C#N)cc3scc(C)n3c2=O)c1`, the 50% inhibitory concentration (IC50) in [1] is 0.000631 µM; on PI3K p110 beta/p85 alpha, 0.02 µM; in [4], 1.26 µM; in [5] it was 0.00251 µM; in data set [6] it was 0.398 µM. Besides, in data set [3], the remaining at 24 h is 0%. The logD in data set [7] is 0.7. The solubility in data set [8] is more than 1000 µM. For the same molecule, in data set [9], the half-life was 1.3 h. Moreover, in data set [10], the remaining at 4 h was 0.8%.

Regarding `Cc1csc2cc([C@H](C)Nc3ncnc(N)c3C#N)c(-c3cccc(CN4CCC(N(C)C)CC4)c3)c(=O)n12`, the inhibition at 11 µM at hERG (KCNH2) was less than 20%. The IC50 in data set [1] is 0.000501 µM; on PI3K p110 beta/p85 alpha, 0.0631 µM; in data set [4], not below 0.631 µM; in [5], 0.01 µM; in data set [6], not below 0.2 µM. Also, the Vd in data set [11] was 12 L/kg. The molecule also gave a bioavailability in data set [12] of less than 1%. Besides, the remaining at 24 h in data set [3] stood at 4.8%. Besides, the pKa stood at 6.5 in [13] and 9.5 in data set [16]. In data set [14], this molecule showed a clearance of 3.42 L/h/kg. The molecule also yielded a logD in data set [7] of 0.5. Moreover, the half-life in [15] is 12 h; in data set [9], 23.2 h. Besides, in the data set with Mus musculus, the inhibition result was “Dose-dependent effect”.

On to `Cc1csc2cc([C@H](C)Nc3ncnc(N)c3C#N)c(-c3cccc(CN(C)CC(C)C)c3)c(=O)n12`, for which the half-maximal inhibitory concentration (IC50) in data set [1] is 0.000501 µM; at PI3K p110 beta/p85 alpha, 0.1 µM; in data set [4], 2 µM; in data set [5], 0.000631 to 0.00158 µM; in [6], more than 0.794 µM. Further, the remaining at 0.05 h in data set [2] stood at 6.5%. The remaining at 24 h in data set [3] was 0%. In addition, the log distribution coefficient (logD) in data set [7] was determined as 2.3. Also, the solubility in [8] is 12 µM (≈ 6.02 µg/mL). In [10], the remaining at 4 h was 0%.
